This is an account of results in BindingDB's records for doi:10.1111/cbdd.12489 (Zhejiang University, 2015).

The target in the experiment is RAC-alpha serine/threonine-protein kinase (Homo sapiens, UniProt P31749). The experiment in a line: Akt1 Inhibitory Activity Assay. Conditions: pH 7.5; 25 °C. The procedure: In vitro kinase assays were carried out using HTScan PKB/Akt1 Kinase Assay kit (Cell Signaling Technology). […] Then, PKB/Akt1 kinase activity was analyzed according to the manufacturer's instructions.
RAC-alpha serine/threonine-protein kinase, sequence (P31749 whole entry): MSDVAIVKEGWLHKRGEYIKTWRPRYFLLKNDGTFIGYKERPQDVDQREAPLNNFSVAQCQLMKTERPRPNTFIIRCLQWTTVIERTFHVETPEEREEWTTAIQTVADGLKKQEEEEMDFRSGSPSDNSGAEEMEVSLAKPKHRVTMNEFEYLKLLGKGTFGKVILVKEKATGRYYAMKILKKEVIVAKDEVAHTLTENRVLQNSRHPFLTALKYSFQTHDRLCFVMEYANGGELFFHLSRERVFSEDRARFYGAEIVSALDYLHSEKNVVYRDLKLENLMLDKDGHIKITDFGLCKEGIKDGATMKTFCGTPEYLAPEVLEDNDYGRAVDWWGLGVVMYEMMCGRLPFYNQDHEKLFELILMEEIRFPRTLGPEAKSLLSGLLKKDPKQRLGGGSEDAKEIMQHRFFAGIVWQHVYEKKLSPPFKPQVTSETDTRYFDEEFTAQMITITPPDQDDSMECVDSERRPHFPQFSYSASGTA

Take `O=c1c(O)c(-c2ccc(O)c(O)c2)oc2cc(O)c(CN3CCOCC3)c(O)c12` [2-(3,4-Dihydroxyphenyl)-3,5,7-trihydroxy-6-(morpholinomethyl)-4H-chromen-4-one (3a)]: the IC50 amounted to 6.2 µM. With `CN(Cc1ccccc1)Cc1c(O)cc2oc(-c3ccc(O)c(O)c3)c(O)c(=O)c2c1O` [6-((Benzyl(methyl)amino)methyl)-2-(3,4-dihydroxyphenyl)-3,5,7-trihydroxy-4H-chromen-4-one (3c)] the figure was 5.5 µM.

A word on the IC50: it is the concentration at which inhibition is half-maximal. Higher therefore signals a need for much substance.
